Data: ChEMBL document CHEMBL3621127, “8-Hydroxyquinoline: a privileged structure with a broad-ranging pharmacological potential” (Medchemcomm, 2015)
pIC50: −log10 of the molar value.

Assays:
[1] = tested on: Leishmania donovani; test: Antileishmanial activity against amastigote form of Leishmania donovani MHOM//IN/80/Dd8 infected in mouse J774A.1 cells after 72 hrs by luciferase reporter gene assay; assay type: functional, organism-based; conditions: MHOM//IN/80/Dd8, J774.A1, 72 h
[2] = Selectivity index, ratio of CC50 for mouse J774A.1 cells to IC50 for amastigote form of Leishmania donovani MHOM//IN/80/Dd8 infected in mouse J774A.1 cells; assay type: functional
[3] = Acute toxicity in po dosed KM mouse measured for 14 days; assay type: organism-based; conditions: in vivo
[4] = target: Amyloid-beta precursor protein (Homo sapiens, UniProt P05067); test: Inhibition of self-induced amyloid beta (1 to 42) (unknown origin) aggregation after 48 hrs by ThT assay
[5] = Inhibition of Mycobacterium tuberculosis Fructose 1,6-bisphosphate aldolase class 2 expressed in Escherichia coli BL21(DE3) assessed as cleavage of fructose 1,6-bisphosphate by fluorescence assay

Amyloid-beta precursor protein, sequence (P05067 whole entry): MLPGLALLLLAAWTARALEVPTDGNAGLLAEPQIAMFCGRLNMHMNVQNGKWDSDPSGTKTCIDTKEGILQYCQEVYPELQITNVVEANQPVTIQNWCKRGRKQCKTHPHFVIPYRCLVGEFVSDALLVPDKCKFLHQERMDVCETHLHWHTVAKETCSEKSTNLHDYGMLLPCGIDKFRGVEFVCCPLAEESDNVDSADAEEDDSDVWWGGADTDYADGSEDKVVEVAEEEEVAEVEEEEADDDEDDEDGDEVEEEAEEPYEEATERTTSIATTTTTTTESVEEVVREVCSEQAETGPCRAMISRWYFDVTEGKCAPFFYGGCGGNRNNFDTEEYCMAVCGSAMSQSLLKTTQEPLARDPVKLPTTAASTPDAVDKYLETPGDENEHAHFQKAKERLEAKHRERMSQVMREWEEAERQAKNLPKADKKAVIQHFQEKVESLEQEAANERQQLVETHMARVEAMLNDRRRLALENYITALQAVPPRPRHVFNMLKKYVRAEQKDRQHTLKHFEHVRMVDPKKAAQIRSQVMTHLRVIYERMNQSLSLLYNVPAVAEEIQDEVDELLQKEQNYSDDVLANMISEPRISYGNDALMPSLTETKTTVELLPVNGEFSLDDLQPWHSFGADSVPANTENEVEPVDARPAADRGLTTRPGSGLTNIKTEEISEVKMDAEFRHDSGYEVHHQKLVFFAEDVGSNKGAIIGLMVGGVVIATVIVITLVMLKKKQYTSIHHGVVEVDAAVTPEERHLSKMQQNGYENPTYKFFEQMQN

| Compound | pIC50 [1] | Ratio CC50/IC50 [2] | LD50 at 336 h [3] [mg/kg] | pIC50 [4] | pIC50 [5] |
| --- | --- | --- | --- | --- | --- |
| COc1ccc(OC)c(/C=C/NC(=O)c2cc(O)c3cccc(OC)c3n2)c1 | 5.43 | 25.27 |  |  |  |
| Oc1ccc(/C=C/c2ccc(O)c3ncccc23)cc1 |  |  | > 2000 | 5.07 |  |
| CCCCCCCCCCCCCCCCOP(=O)([O-])OCC[N+](C)(C)C [MILTEFOSINE] | 4.91 | 4.1 |  |  |  |
| O=C(O)c1ccc2cccc(O)c2n1 |  |  |  |  | 5.00 |
